# According to patent US7323461B2, “Use of methylene blue and related compounds to prevent or reverse an exaggerated hemodynamic reaction” (Montreal Heart Institute, priority 2002, dated 2008):
# Entries after “also recorded” stand apart in the source; their conditions may differ.
# Legend:
# [1] = Hemodynamic effects of methylene blue on hypotensive pigs (LCX artery occluded, sildenafil citrate plus nitroglycerin); assay type: in vivo, pig; conditions: LCX balloon occlusion, 100 mg sildenafil citrate via esophagus tube, 0.2 mg nitroglycerin i.v. bolus along with MB bolus 3 mg/kg
# Experimental: (§1) Pigs weighing between 20 and 25 kg were anesthetized in accordance with the standard procedure of the Canadian Council on Animal Care Regulations. After baseline hemodynamic measurements, the left circumflex (LCX) artery was occluded using a catheter balloon so as to mimic the condition of patients with cardiovascular disease. As soon as the animal was stable, a bolus injection of nitroglycerin (0.2 mg) was given intravenously in order to observe the effect of nitroglycerin alone on the animal. The animal's blood pressure was allowed to return to normal, and the animal was given 100 mg of sildenafil citrate via an esophagus tube. One hour after the administration of sildenafil citrate, a bolus injection of 0.2 mg of nitroglycerin was given to the animal in order to observe the combined effect of […] and nitroglycerin on the animal. When the animal's blood pressure returned to normal, a second 0.2 mg bolus injection of nitroglycerin was given along with a bolus of MB (3 mg/kg). Blood pressure and heart rate were monitored throughout the procedure.
# [2] = Hemodynamic effects of methylene blue on hypotensive dogs (same procedure as for pigs); assay type: in vivo, dog; conditions: same procedure as pigs: sildenafil citrate, nitroglycerin bolus
# Experimental: as §1
# The procedure used was the same as that for pigs. (See EXAMPLE 1, above.) The experiments were conducted on dogs to see what effect the combination of a phosphodiesterase inhibitor and an organic nitrate would have on an animal with a greater number of collaterals than the pig. […]
# [3] = humans, dosages above 2 mg/kg; cited from earlier work
structure (smiles),measurement,setting,value
"CN(C)c1ccc2nc3ccc(N(C)C)cc3[s+]c2c1.[Cl-] [MB, 3,7-bis(dimethylamino)phenothiazin-5-ium chloride]",changes in time in systolic blood pressure after nitroglycerin injection with MB,[1],Pressure recovery was much more rapid in the presence of MB; also recorded: beneficial effects of MB may be seen; also recorded: effectiveness of MB in increasing the blood pressure
same,changes in time in systolic blood pressure after nitroglycerin injection with MB,[2],"A drop in blood pressure is less pronounced, and there is more rapid recovery time, than without MB; also recorded: MB effectively increased the blood pressure in the animals tested"
same,respiratory problems at high dosage,[3],can lead to respiratory problems in humans
